Reference: patent US6737383B1, “Herbicidal oxadiazolidines” (priority 1999, dated 2004)

Key:
soybean = assay: Test B pre/postemergence soybean; type: in vivo, Glycine max
In short: (§1)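 Herbicidal effect was estimated by eye on a ten-point control scale after plants spent twelve to sixteen days in a greenhouse following soil or foliar treatment. Foliar sprays targeted plants at one to four leaves; all doses were formulated in a non-phytotoxic solvent with surfactant.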

rape = assay: Test B pre/postemergence rape; type: in vivo, Brassica napus
In short: as §1

smallflower flatsedge = assay: Test B flood test smallflower flatsedge; type: in vivo, Cyperus difformis
In short: (§2)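 Read-out is a visual response score from 0 (no effect) to 10 (complete control), assigned by comparison with untreated controls. Treatment was applied at the 2-leaf stage, and plants stayed in the greenhouse for twelve to sixteen days before scoring.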

purple nutsedge = assay: Test B pre/postemergence purple nutsedge; type: in vivo, Cyperus rotundus
In short: as §1

bamyardgrass = assay: Test B flood test barnyardgrass; type: in vivo, Echinochloa crus-galli
In short: as §2

crabgrass = assay: Test B pre/postemergence crabgrass; type: in vivo, Digitaria sanguinalis
In short: as §1

wheat = assay: Test B pre/postemergence wheat; type: in vivo, Triticum aestivum
In short: as §1

blackgrass = assay: Test B pre/postemergence blackgrass; type: in vivo, Alopecurus myosuroides
In short: as §1

giant foxtail = assay: Test B pre/postemergence giant foxtail; type: in vivo, Setaria faberii
In short: as §1

corn = assay: Test B pre/postemergence corn; type: in vivo, Zea mays
In short: as §1

duck salad = assay: Test B flood test duck salad; type: in vivo, Heteranthera limosa
In short: as §2

sugar beet = assay: Test B pre/postemergence sugar beet; type: in vivo, Beta vulgaris
In short: as §1

pigweed = assay: Test B pre/postemergence pigweed; type: in vivo, Amaranthus retroflexus
In short: as §1

rice = assay: Test B flood test rice; type: in vivo, Oryza sativa
In short: as §2

surinam grass = assay: Test B pre/postemergence surinam grass; type: in vivo, Brachiaria decumbens
In short: as §1

cocklebur = assay: Test B pre/postemergence cocklebur; type: in vivo, Xanthium strumarium
In short: as §1

[1] = Preemergence, Rate 62 g/ha, scale of 0 to 10 where 0 is no effect and 10 is complete control
[2] = Preemergence, Rate 125 g/ha, 0 is no effect, 10 is complete control
[3] = Preemergence, Rate 250 g/ha, scale 0 to 10, 0 is no effect, 10 is complete control
[4] = Preemergence, Rate 500 g/ha, scale of 0 to 10 where 0 is no effect and 10 is complete control
[5] = Rate 62 g/ha, Postemergence, scale of 0 to 10 where 0 is no effect and 10 is complete control
[6] = Rate 125 g/ha, Postemergence, scale 0 to 10
[7] = Rate 500 g/ha, Postemergence, scale 0 to 10
[8] = Rate 62 g/ha, headed Pre-emergence (flood test species), scale 0 to 10 (0 no effect, 10 complete control)
[9] = Rate 125 g/ha, Pre-emergence, flood test species, scale 0 to 10 where 0 is no effect and 10 is complete control
[10] = Rate 250 g/ha, Pre-emergence, flood-test species, scale 0 to 10, 0 is no effect, 10 is complete control
[11] = Rate 500 g/ha, headed Pre-emergence (flood test species), scale 0 to 10 (0 no effect, 10 complete control)

## CC(C)N(C(=O)n1oc(=O)n(-c2ccc(OC(F)(F)F)cc2)c1=O)c1ccc(F)cc1 [Compound 202]
soybean; [1]
  Soybean plant response rating: 0
soybean; [2]
  Soybean plant response rating (0 to 10 scale): 0
soybean; [3]
  Soybean plant response rating: 0
soybean; [4]
  Plant response rating, Soybean: 0
soybean; [5]
  Soybean plant response rating: 2
soybean; [6]
  Soybean plant response rating: 2
soybean; Rate 250 g/ha, Postemergence
  Plant response rating (0 to 10; 0 is no effect, 10 is complete control), Soybean: 3
soybean; [7]
  Soybean plant response rating: 3
rape; [1]
  Rape plant response rating: 0
rape; [2]
  Rape plant response rating (0 to 10 scale): 0
rape; [3]
  Rape plant response rating: 0
rape; [4]
  Plant response rating, Rape: 0
rape; [5]
  Rape plant response rating: 1
rape; [6]
  Rape plant response rating: 1
rape; Rate 250 g/ha, Postemergence
  Plant response rating (0 to 10; 0 is no effect, 10 is complete control), Rape: 1
rape; [7]
  Rape plant response rating: 4
Smallflower flatsedge; [8]
  S. Flatsedge plant response rating: 0
Smallflower flatsedge; [9]
  S. Flatsedge plant response rating: 0
Smallflower flatsedge; [10]
  S. Flatsedge plant response rating: 0
Smallflower flatsedge; Rate 500 g/ha, Pre-emergence, flood test species, scale 0 to 10 (0 no effect, 10 complete control)
  S. Flatsedge plant response rating: 0
Purple nutsedge; [1]
  Nutsedge plant response rating: 0
Purple nutsedge; [5]
  Nutsedge plant response rating: 0
Purple nutsedge; [6]
  Nutsedge plant response rating: 0
Purple nutsedge; Rate 250 g/ha, Postemergence
  Plant response rating (0 to 10; 0 is no effect, 10 is complete control), Nutsedge: 0
Purple nutsedge; [7]
  Nutsedge plant response rating: 0
bamyardgrass; [8]
  Barnyardgrass plant response rating: 0
bamyardgrass; [9]
  Barnyardgrass plant response rating: 0
bamyardgrass; [10]
  Barnyardgrass plant response rating: 0
bamyardgrass; [11]
  Plant response rating, Barnyardgrass: 0
crabgrass; [1]
  Crabgrass plant response rating: 3
crabgrass; [2]
  Crabgrass plant response rating (0 to 10 scale): 4
crabgrass; [3]
  Crabgrass plant response rating: 6
crabgrass; [4]
  Plant response rating, Crabgrass: 9
crabgrass; [5]
  Crabgrass plant response rating: 0
crabgrass; [6]
  Crabgrass plant response rating: 0
crabgrass; Rate 250 g/ha, Postemergence
  Plant response rating (0 to 10; 0 is no effect, 10 is complete control), Crabgrass: 1
crabgrass; [7]
  Crabgrass plant response rating: 4
wheat; [1]
  Wheat plant response rating: 0
wheat; [3]
  Wheat plant response rating: 0
wheat; [4]
  Plant response rating, Wheat: 2
wheat; [5]
  Wheat plant response rating: 0
wheat; [6]
  Wheat plant response rating: 0
wheat; Rate 250 g/ha, Postemergence
  Plant response rating (0 to 10; 0 is no effect, 10 is complete control), Wheat: 0
blackgrass; [1]
  Blackgrass plant response rating: 0
blackgrass; [2]
  Blackgrass plant response rating (0 to 10 scale): 0
blackgrass; [3]
  Blackgrass plant response rating: 5
blackgrass; [4]
  Plant response rating, Blackgrass: 2
blackgrass; [5]
  Blackgrass plant response rating: 0
blackgrass; [6]
  Blackgrass plant response rating: 3
blackgrass; Rate 250 g/ha, Postemergence
  Plant response rating (0 to 10; 0 is no effect, 10 is complete control), Blackgrass: 5
blackgrass; [7]
  Blackgrass plant response rating: 6
Giant foxtail; [1]
  Giant foxtail plant response rating: 2
Giant foxtail; [2]
  Giant foxtail plant response rating (0 to 10 scale): 6
Giant foxtail; [3]
  Giant foxtail plant response rating: 7
Giant foxtail; [4]
  Plant response rating, Giant foxtail: 10
Giant foxtail; [5]
  Giant foxtail plant response rating: 0
Giant foxtail; [6]
  Giant foxtail plant response rating: 0
Giant foxtail; Rate 250 g/ha, Postemergence
  Plant response rating (0 to 10; 0 is no effect, 10 is complete control), Giant foxtail: 0
Giant foxtail; [7]
  Giant foxtail plant response rating: 2
corn; [1]
  Corn plant response rating: 0
corn; [2]
  Corn plant response rating (0 to 10 scale): 0
corn; [3]
  Corn plant response rating: 0
corn; [4]
  Plant response rating, Corn: 0
corn; [5]
  Corn plant response rating: 0
corn; [6]
  Corn plant response rating: 0
corn; Rate 250 g/ha, Postemergence
  Plant response rating (0 to 10; 0 is no effect, 10 is complete control), Corn: 0
corn; [7]
  Corn plant response rating: 0
Duck salad; [8]
  Ducksalad plant response rating: 0
Duck salad; [9]
  Ducksalad plant response rating: 0
Duck salad; [10]
  Ducksalad plant response rating: 0
Duck salad; [11]
  Plant response rating, Ducksalad: 0
Sugar beet; [1]
  Sugarbeets plant response rating: 0
Sugar beet; [2]
  Sugarbeets plant response rating (0 to 10 scale): 0
Sugar beet; [3]
  Sugarbeets plant response rating: 3
Sugar beet; [4]
  Plant response rating, Sugarbeets: 1
Sugar beet; [5]
  Sugarbeets plant response rating: 0
Sugar beet; [6]
  Sugarbeets plant response rating: 3
Sugar beet; Rate 250 g/ha, Postemergence
  Plant response rating (0 to 10; 0 is no effect, 10 is complete control), Sugarbeets: 4
Sugar beet; [7]
  Sugarbeets plant response rating: 4
pigweed; [1]
  Redroot pigweed plant response rating: 0
pigweed; [2]
  Redroot pigweed plant response rating (0 to 10 scale): 0
pigweed; [3]
  Redroot pigweed plant response rating: 8
pigweed; [4]
  Plant response rating, Redroot pigweed: 3
pigweed; [5]
  Redroot pigweed plant response rating: 3
pigweed; [6]
  Redroot pigweed plant response rating: 4
pigweed; Rate 250 g/ha, Postemergence
  Plant response rating (0 to 10; 0 is no effect, 10 is complete control), Redroot pigweed: 6
pigweed; [7]
  Redroot pigweed plant response rating: 7
rice; [8]
  Rice plant response rating: 0
rice; [9]
  Rice plant response rating: 0
rice; [10]
  Rice plant response rating: 0
rice; [11]
  Plant response rating, Rice: 0
Surinam grass; [1]
  B. signalgrass plant response rating: 0
Surinam grass; [2]
  B. signalgrass plant response rating (0 to 10 scale): 0
Surinam grass; [3]
  B. signalgrass plant response rating: 0
Surinam grass; [4]
  Plant response rating, B. signalgrass: 0
Surinam grass; [5]
  B. signalgrass plant response rating: 0
Surinam grass; Rate 125 g/ha, Postemergence, scale 0 (no effect) to 10 (complete control)
  B. signalgrass plant response rating: 0
Surinam grass; Rate 250 g/ha, Postemergence, scale 0 to 10, 0 is no effect, 10 is complete control
  Plant response rating, B. signalgrass: 0
Surinam grass; Rate 500 g/ha, Postemergence, scale 0 to 10, 0 no effect, 10 complete control
  B. signalgrass plant response rating: 0
cocklebur; [1]
  Cocklebur plant response rating: 0
cocklebur; [2]
  Cocklebur plant response rating (0 to 10 scale): 0
cocklebur; [3]
  Cocklebur plant response rating: 0
cocklebur; [4]
  Plant response rating, Cocklebur: 0
cocklebur; [5]
  Cocklebur plant response rating: 0
cocklebur; [6]
  Cocklebur plant response rating: 0
cocklebur; Rate 250 g/ha, Postemergence
  Plant response rating (0 to 10; 0 is no effect, 10 is complete control), Cocklebur: 2
cocklebur; [7]
  Cocklebur plant response rating: 2
